Results as given in the supplement of paper PMC11451515.

System: P12-Ichikawa
Assay: cell viability relative to DMSO control; higher = less cytotoxic
Settings: 48 h
Method in brief: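 Viability is expressed as a percentage of DMSO wells within each plate, and cell-free wells serve as background. Seeding densities in the 1536-well plates (5 μl) were 500 cells/well for NOMO1 or SEM leukemia cells and 1000 cells/well for P12-Ichikawa. Each line was adapted for at least four passages in each medium. Library compounds in DMSO were pin-dosed at 47 μM to 0.79 nM (11 points, threefold), and CellTiter-Glo One luminescence was read after 48 h at 37°C.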

[1] = HPLM + 10% dialyzed FBS, 0.000781 µM
[2] = HPLM + 10% dialyzed FBS, 0.00234 µM
[3] = HPLM + 10% dialyzed FBS, 0.00702 µM
[4] = HPLM + 10% dialyzed FBS, 0.0211 µM
[5] = HPLM + 10% dialyzed FBS, 0.0632 µM
[6] = HPLM + 10% dialyzed FBS, 0.19 µM
[7] = HPLM + 10% dialyzed FBS, 0.569 µM
[8] = HPLM + 10% dialyzed FBS, 1.71 µM
[9] = HPLM + 10% dialyzed FBS, 5.12 µM
[10] = HPLM + 10% dialyzed FBS, 15.4 µM
[11] = HPLM + 10% dialyzed FBS, 46.1 µM
[12] = RPMI 5 mM glucose + 10% FBS, 0.000781 µM
[13] = RPMI 5 mM glucose + 10% FBS, 0.00234 µM
[14] = RPMI 5 mM glucose + 10% FBS, 0.00702 µM
[15] = RPMI 5 mM glucose + 10% FBS, 0.0211 µM
[16] = RPMI 5 mM glucose + 10% FBS, 0.0632 µM
[17] = RPMI 5 mM glucose + 10% FBS, 0.19 µM
[18] = RPMI 5 mM glucose + 10% FBS, 0.569 µM
[19] = RPMI 5 mM glucose + 10% FBS, 1.71 µM
[20] = RPMI 5 mM glucose + 10% FBS, 5.12 µM
[21] = RPMI 5 mM glucose + 10% FBS, 15.4 µM
[22] = RPMI 5 mM glucose + 10% FBS, 46.1 µM
[23] = RPMI 5 mM glucose + 10% dialyzed FBS, 0.000781 µM
[24] = RPMI 5 mM glucose + 10% dialyzed FBS, 0.00234 µM
[25] = RPMI 5 mM glucose + 10% dialyzed FBS, 0.00702 µM
[26] = RPMI 5 mM glucose + 10% dialyzed FBS, 0.0211 µM
[27] = RPMI 5 mM glucose + 10% dialyzed FBS, 0.0632 µM
[28] = RPMI 5 mM glucose + 10% dialyzed FBS, 0.19 µM
[29] = RPMI 5 mM glucose + 10% dialyzed FBS, 0.569 µM
[30] = RPMI 5 mM glucose + 10% dialyzed FBS, 1.71 µM
[31] = RPMI 5 mM glucose + 10% dialyzed FBS, 5.12 µM
[32] = RPMI 5 mM glucose + 10% dialyzed FBS, 15.4 µM
[33] = RPMI 5 mM glucose + 10% dialyzed FBS, 46.1 µM

SMILES | cell viability [1] | cell viability [2] | cell viability [3] | cell viability [4] | cell viability [5] | cell viability [6] | cell viability [7] | cell viability [8] | cell viability [9] | cell viability [10] | cell viability [11] | cell viability [12] | cell viability [13] | cell viability [14] | cell viability [15] | cell viability [16] | cell viability [17] | cell viability [18] | cell viability [19] | cell viability [20] | cell viability [21] | cell viability [22] | cell viability [23] | cell viability [24] | cell viability [25] | cell viability [26] | cell viability [27] | cell viability [28] | cell viability [29] | cell viability [30] | cell viability [31] | cell viability [32] | cell viability [33]
CN(C[C@@H]1COCCO1)[S+]([O-])(=O)NC2=CC3=C(C=C2)\C=C/C4=C(C=C(C=N4)C5=C[N](C)N=C5)C3=O | 93.4% | 99.6% | 94.1% | 101% | 93.7% | 90.1% | 71.8% | 67.4% | 54.7% | 49.8% | 52.4% | 95.6% | 92.7% | 103% | 95.2% | 102% | 96.1% | 76.6% | 53.5% | 48.8% | 42.2% | 50% | 94% | 97.1% | 88.7% | 91.2% | 105% | 88.9% | 75.3% | 53.6% | 43.3% | 37.6% | 41.5%
O=C1\C=C(OC2=C(C=CC=C12)C3=CC=CC4=C3SC5=C4C=CC=C5)\N6CCOCC6 | 119% | 125% | 127% | 129% | 137% | 130% | 130% | 131% | 129% | 132% | 121% | – | – | – | – | – | – | – | – | – | – | – | – | – | – | – | – | – | – | – | – | – | –
CCN1\C=C(C(O)=O)/C(=O)C2=C1C(=C(N3CCNC(C)C3)C(=C2)F)F (configuration not stated) | 96.7% | 107% | 111% | 125% | 101% | 109% | 119% | 115% | 124% | 118% | 110% | 87% | 94% | 110% | 110% | 109% | 110% | 114% | 113% | 107% | 124% | 116% | 104% | 112% | 110% | 113% | 107% | 116% | 117% | 113% | 124% | 120% | 112%
COc1cc(N2CCC(N3CCN(C)CC3)CC2)ccc1Nc1ncc(Cl)c(Nc2ccccc2[S+](=O)([O-])C(C)C)n1 | 106% | 101% | 129% | 140% | 142% | 136% | 144% | 104% | 23.6% | 12.2% | 31.5% | 83.4% | 87.1% | 138% | 149% | 159% | 151% | 147% | 104% | 33.7% | 37.4% | 40.3% | 99.3% | 88.2% | 146% | 161% | 177% | 171% | 161% | 150% | 53.3% | 58% | 65.5%
O=C(Nc1cccnc1)N1CCC(Cc2cccc(Oc3ccc(C(F)(F)F)cn3)c2)CC1 | 116% | 107% | 109% | 104% | 110% | 92% | 83.1% | 76.3% | 68.7% | 27.1% | 15.5% | 109% | 117% | 117% | 106% | 118% | 97.6% | 82.2% | 64.2% | 55.6% | 23.5% | 10.4% | 108% | 108% | 113% | 114% | 103% | 88.4% | 81.1% | 62.6% | 50.4% | 29.3% | 13.9%
Cc1cnc(Nc2cccc(CN3CCOCC3)c2)nc1Nc1cccc([S+](=O)([O-])NC(C)(C)C)c1 | 90% | 91.9% | 90.5% | 96.2% | 91.9% | 89.3% | 95.1% | 92.2% | 44% | 91.5% | 54.4% | 91% | 87.7% | 85.9% | 92.2% | 89.8% | 88.7% | 80.8% | 86.4% | 20.5% | 88.2% | 73.4% | 80.8% | 83.2% | 82.6% | 79.7% | 85.9% | 82.3% | 85.4% | 81.4% | 41.7% | 76.8% | 53.1%
C[C@]12CC[C@H]3[C@@H](CC[C@@]45O[C@@H]4C(O)=C(C#N)C[C@]35C)[C@@H]1CC[C@@H]2O | 108% | 116% | 113% | 116% | 125% | 116% | 111% | 115% | 113% | 107% | 20.9% | 101% | 103% | 108% | 120% | 108% | 114% | 121% | 122% | 116% | 108% | 12.3% | 101% | 103% | 113% | 116% | 114% | 114% | 111% | 115% | 109% | 105% | 16.7%
O=C(O)c1cccnc1 | 107% | 107% | 115% | 114% | 106% | 107% | 106% | 96.1% | 68.9% | 47.1% | 35.8% | 113% | 112% | 126% | 113% | 118% | 119% | 117% | 110% | 99.7% | 55.8% | 30.9% | 110% | 112% | 106% | 108% | 108% | 102% | 105% | 98.2% | 76.5% | 33.4% | 9.03%
